Experimental data from US4735953A, “Pharmaceutical preparation for learning stimulation and memory improvement” (priority 1986, dated 1988).

How the values were obtained:
[1] = tested on: learning ability of mice in a shuttle chamber; test: Learning ability of mice in a shuttle chamber; format: in vivo, mouse
[2] = Carcinogenic, mutagenic, teratogenic, embryotoxic effect
[3] = tested on: dogs; test: Chronic toxicity, dogs; format: in vivo, dog; conditions: hypodermal, 6 months
Description: The chronic toxicity of the preparation was studied on three species of animals (rats, dogs, rabbits). In chronic tests on the above-mentioned animals the effect of a long-time hypodermal administration of the preparation according to the present invention on the general state and mass of animals, hemogram, cardio-vascular system, breathing central nervous system, functional state of kidneys, liver, thyroid gland was studied. […] The doses of the preparation employed in the experiments surpassed the required dose for a human being (per kilogram of bodymass) by 5-10 times.

[4] = tested on: patients; test: Clinical study on patients with memory disorders, compared to pyracetam; format: in vivo, human
Description: The preparation according to the present invention was studied in clinics on 130 patients.
As regards diagnosis and sex the patients were distributed as follows:
skull-brain traumata with memory disturbance: 75 patients (52 men and 23 women)
Alzheimer's disease: 15 patients (3 men and 12 women)
Pick's disease: 5 patients (5 men)
Senile dementia: 15 patients (4 men and 11 women)
Vascular dementia (cerabral atero-sclerosis, hypertonic disease): 20 patients (7 men and 13 women)
In the group of patients with skull-brain trauma the patient's age varied from 17 to 60 years, in the other patients--from 52 to 75 years.
In addition to clinico-psychopathological methods of investigation, all the patients were subjected to neuropsychological studies during which specific tasks were offered them to solve. In doing so, the response was assessed against a 4-points scale: 3--maximally pronounced disorder, full or substantially full incapability to deal with the task set; 2--a medium degree of manifestation of the deficiency, solving the task with the experimentator's assistance; 1--minor errors, independent correction of mistakes; 0--lack of disturbances.
The treatment course duration is 30-60 days. In the case of an acute skull-brain trauma (65 patients) the treatment started 15-20 days after the moment of trauma and lasted for 20-30 days.
It is known that the function of memory has a complex brain organization and different zones of brains take part in its regulation. During the studies a multi-faceted assessment of the memory function was carried out; there were assessed: (1) mnestic component of the environmental orientation of a patient; (2) involuntary memory for current events; (3) intentional exo-experimental memory; (4) volume and soundness of audio-speaking memory; (5) volume and soundness of visual memory; (6) operative memory; (7) memory for knowledge acquired before the disease.

[5] = tested on: rats; test: Teaching of rats in a T-shaped labyrinth with positive meal support; format: in vivo, rat
Description: In the second series of experiments the preparation according to the present invention was studied for the effect on teaching of rats in a T-shaped labyrinth in one compartment of which a feedbox with meal was provided. Rats deprived of meals during the day were placed into the starting compartment of the labyrinth and taught to find the feed-box in the proper compartment of the labyrinth. The response time, the number of unrealized reactions, the latent period, and the number of errors were noted.
Similar results were obtained in experiments in a T-shaped labyrinth with the use of a positive meal support.

[6] = mice, hypodermally 1 mg/kg, 1st day
[7] = mice, hypodermally 1 mg/kg, 12 day (retention)
[8] = mice, hypodermally 3 mg/kg, 1st day
[9] = mice, hypodermally 3 mg/kg, 12 day (retention)
[10] = mice, hypodermally 10 mg/kg, 1st day
[11] = mice, hypodermally 10 mg/kg, 12 day (retention)
[12] = mice, per os 0.3 mg/kg, 1st day
[13] = mice, per os 0.3 mg/kg, 12 day (retention)
[14] = mice, per os 1 mg/kg, 12 day (retention)
[15] = mice, per os 3 mg/kg, 12 day (retention)

For `Cl.Nc1c2c(nc3c1CCC3)CCCC2.O` [preparation of the invention, 9-amino-2,3,5,6,7,8-hexahydro-1H-cyclopenta(b)quinoline monohydrate hydrochloride], the “efficiency versus comparison preparations (in words)” value ([1]; mice) was “more efficient than pyracetam, 4-aminopyridine, physostigmine and calcium homopantothenate”, the “retention of the acquired knowledge (in words)” value ([1]; mice, 1, 3 and 10 mg/kg, after 24 hours) was “improves retention of the acquired knowledge” and the “learning process (in words)” value ([1]; mice, 1, 3 and 10 mg/kg, first day of teaching) was “facilitates the learning process”. The “% of avoidance reactions, group I” value [1, 6] was 22%, the “% of avoidance reactions, group II” value [1, 6] was 40% and the “% of avoidance reactions, group III” value [1, 6] was 52%. For the same compound, the “% of avoidance reactions, group IV” value [1, 6] was 60%, the “% of avoidance reactions, group V” value [1, 6] was 70% and the “% of avoidance reactions, group VI” value [1, 6] was 74%. For the same compound, the “% of avoidance reactions, group I” value [1, 7] was 70%, the “% of avoidance reactions, group II” value [1, 7] was 88% and the “% of avoidance reactions, group III” value [1, 7] was 90%. For the same compound, the “% of avoidance reactions, group IV” value [1, 7] was 90%, the “% of avoidance reactions, group V” value [1, 7] was 91% and the “% of avoidance reactions, group VI” value [1, 7] was 90%. The “% of avoidance reactions, group I” value [1, 8] was 32%, the “% of avoidance reactions, group II” value [1, 8] was 43% and the “% of avoidance reactions, group III” value [1, 8] was 50%. For the same compound, the “% of avoidance reactions, group IV” value [1, 8] was 61%, the “% of avoidance reactions, group V” value [1, 8] was 67% and the “% of avoidance reactions, group VI” value [1, 8] was 65%. For the same compound, the “% of avoidance reactions, group I” value [1, 9] was 66%, the “% of avoidance reactions, group II” value [1, 9] was 90% and the “% of avoidance reactions, group III” value [1, 9] was 88%. For the same compound, the “% of avoidance reactions, group IV” value [1, 9] was 87%, the “% of avoidance reactions, group V” value [1, 9] was 86% and the “% of avoidance reactions, group VI” value [1, 9] was 86%. For the same compound, the “% of avoidance reactions, group I” value [1, 10] was 28%, the “% of avoidance reactions, group II” value [1, 10] was 20% and the “% of avoidance reactions, group III” value [1, 10] was 25%. For the same compound, the “% of avoidance reactions, group IV” value [1, 10] was 40%, the “% of avoidance reactions, group V” value [1, 10] was 44% and the “% of avoidance reactions, group VI” value [1, 10] was 46%. The “% of avoidance reactions, group I” value [1, 11] was 61%, the “% of avoidance reactions, group II” value [1, 11] was 75% and the “% of avoidance reactions, group III” value [1, 11] was 78%. The “% of avoidance reactions, group IV” value [1, 11] was 77%, the “% of avoidance reactions, group V” value [1, 11] was 76% and the “% of avoidance reactions, group VI” value [1, 11] was 81%. The “% of avoidance reactions, group I” value [1, 12] was 27%, the “% of avoidance reactions, group II” value [1, 12] was 38% and the “% of avoidance reactions, group III” value [1, 12] was 59%. For the same compound, the “% of avoidance reactions, group IV” value [1, 12] was 65%, the “% of avoidance reactions, group V” value [1, 12] was 68% and the “% of avoidance reactions, group VI” value [1, 12] was 72%. For the same compound, the “% of avoidance reactions, group I” value [1, 13] was 79%, the “% of avoidance reactions, group II” value [1, 13] was 84% and the “% of avoidance reactions, group III” value [1, 13] was 82%. For the same compound, the “% of avoidance reactions, group IV” value [1, 13] was 83%, the “% of avoidance reactions, group V” value [1, 13] was 80% and the “% of avoidance reactions, group VI” value [1, 13] was 82%. For the same compound, the “% of avoidance reactions, group I” value ([1]; mice, per os 1 mg/kg, 1st day) was 27%, the “% of avoidance reactions, group II” value ([1]; mice, per os 1 mg/kg, 1st day) was 43% and the “% of avoidance reactions, group III” value ([1]; mice, per os 1 mg/kg, 1st day) was 70%. The “% of avoidance reactions, group IV” value ([1]; mice, per os 1 mg/kg, 1st day) was 80%, the “% of avoidance reactions, group V” value ([1]; mice, per os 1 mg/kg, 1st day) was 80% and the “% of avoidance reactions, group VI” value ([1]; mice, per os 1 mg/kg, 1st day) was 82%. For the same compound, the “% of avoidance reactions, group I” value [1, 14] was 80%, the “% of avoidance reactions, group II” value [1, 14] was 90% and the “% of avoidance reactions, group III” value [1, 14] was 88%. For the same compound, the “% of avoidance reactions, group IV” value [1, 14] was 87%, the “% of avoidance reactions, group V” value [1, 14] was 86% and the “% of avoidance reactions, group VI” value [1, 14] was 90%. For the same compound, the “% of avoidance reactions, group I” value ([1]; mice, per os 3 mg/kg, 1st day) was 18%, the “% of avoidance reactions, group II” value ([1]; mice, per os 3 mg/kg, 1st day) was 27% and the “% of avoidance reactions, group III” value ([1]; mice, per os 3 mg/kg, 1st day) was 35%. The “% of avoidance reactions, group IV” value ([1]; mice, per os 3 mg/kg, 1st day) was 44%, the “% of avoidance reactions, group V” value ([1]; mice, per os 3 mg/kg, 1st day) was 51% and the “% of avoidance reactions, group VI” value ([1]; mice, per os 3 mg/kg, 1st day) was 50%. For the same compound, the “% of avoidance reactions, group I” value [1, 15] was 51%, the “% of avoidance reactions, group II” value [1, 15] was 76% and the “% of avoidance reactions, group III” value [1, 15] was 75%. For the same compound, the “% of avoidance reactions, group IV” value [1, 15] was 77%, the “% of avoidance reactions, group V” value [1, 15] was 79% and the “% of avoidance reactions, group VI” value [1, 15] was 80%. The “memory stimulation, per os as compared to subcutaneous administration” value ([1]; mice, per os vs subcutaneous) was “the same or even better results of memory stimulation”, the carcinogenic effect [2] was “neither provides a carcinogenic, mutagenic, teratogenic or embryotoxic effect” and the embryotoxic effect [2] was “neither provides a carcinogenic, mutagenic, teratogenic or embryotoxic effect”. The mutagenic effect [2] was “neither provides a carcinogenic, mutagenic, teratogenic or embryotoxic effect”, the teratogenic effect [2] was “neither provides a carcinogenic, mutagenic, teratogenic or embryotoxic effect” and the chronic toxicity [3] was “no toxic effect”. For the same compound, the therapeutic effect ([4]; Alzheimer's and Pick's diseases) was “An essential amelioration”, the “recovery of psychic functions” value ([4]; acute skull-brain trauma) was “faster and more complete recovery of psychic functions” and the “therapeutic effect, memory” value ([4]; consequences of a vascular injury of brains) was “an improvement of memory was noted along with a higher working capacity”. The “effect on memory parameters” value ([4]; environmental orientation, past knowledge, involuntary, voluntary exo-experimental and operative memory) was “more complete and faster recovering effect”, the “effect on the functional symmetry of the brain and activity of the dominating hemisphere” value ([4]; experimental and clinical studies) was “enhanced activity of the dominating hemisphere” and the “character of recovery (in words)” value ([4]; patients) was “constructive and environmental praxis recovered most efficiently along with reading ability and memory”. For the same compound, the “recovery of visual versus audio memory (in words)” value ([4]; patients) was “visual memory recovered faster than the audio memory”, the “restoration of psychic functions as compared to pyracetam” value ([4]; patients, 5 to 30 mg a day subcutaneous, 30-60 days) was “faster and more complete restoration of psychic functions” and the “number of response failures as compared to the initial level on the first day of teaching” value ([5]; rats, 5 mg/kg, by the fourth day of teaching, control 60-70%) was 40%. For the same compound, the “number of response failures (in words)” value ([5]; rats, 1, 5 and 10 mg/kg) was “reduced number of response failures”.
